Assays:
NaV1.7 [1] = target: T1, NaV1.7 (Homo sapiens, UniProt Q15858); assay: Whole cell patch clamp, internal block of NaV1.7 current (compound in intracellular solution); assay type: cell-based; conditions: test concentration 0.32 μM; text says intracellular inhibition (compound in internal solution), 5 Hz stimulation; read-out: NaV1.7 Extracellular Inhibition
T1 construct: expressed in transfected cells; host or cells: Tetracycline-inducible cell line kept under hygromycin and blasticidin selection
Protocol: (§1) NaV1.7 was expressed upon induction with tetracycline. Cells were cultured in DMEM containing 10% dialyzed Fetal Bovine Serum (VWR, Radnor, PA), 1% Glutamax (VWR, Radnor, PA), 1% Penicillin-Streptomycin (VWR, Radnor, PA), 100 mg/L Hygromycin (Thermo Fisher Scientific, Waltham, MA and 5 mg/L Blasticidin (Alfa Aesar, Haverhill, MA). Cells were grown and maintained at 37° C. in a humidified environment containing 10% CO2 in air. Cells were detached from the culture flask for passage and harvested using 0.05% Trypsin-EDTA (Thermo Fisher Scientific, Waltham, MA). To induce NaV1.7, cells were induced with tetracycline (0.1-1 μg/mL, IBI Scientific, Peosta, IA) the day before recording and plated onto 24-well plates. Cells were washed with DPBS (VWR, Radnor, PA), trypsinized and then triturated five times in 10 mL of growth media to break apart cell aggregates. […]
(§2) Once the recording was started, the voltage protocol was run at 30 second intervals for 5 minutes to get a stable baseline. […] Currents were recorded using PatchMaster software with Heka EPC10 (HEKA Electronics, Lambrecht, Germany). […]
(§3) The data was plotted using the Patchmaster software (HEKA Electronics, Lambrecht, Germany) and analyzed by plotting the minimum current during the voltage step to −20 mV (peak inward current) as a function of time. […]

NaV1.7 [2] = target: T1, NaV1.7; assay: Whole cell patch clamp, external block of NaV1.7 current (compound in external solution); assay type: cell-based; conditions: test concentration 10 μM; compound applied in external solution for 5 minutes, 5 Hz stimulation; read-out: NaV1.7 Extracellular Inhibition
Protocol: as §1, §2, §3

T1 sequence (Q15858 whole entry): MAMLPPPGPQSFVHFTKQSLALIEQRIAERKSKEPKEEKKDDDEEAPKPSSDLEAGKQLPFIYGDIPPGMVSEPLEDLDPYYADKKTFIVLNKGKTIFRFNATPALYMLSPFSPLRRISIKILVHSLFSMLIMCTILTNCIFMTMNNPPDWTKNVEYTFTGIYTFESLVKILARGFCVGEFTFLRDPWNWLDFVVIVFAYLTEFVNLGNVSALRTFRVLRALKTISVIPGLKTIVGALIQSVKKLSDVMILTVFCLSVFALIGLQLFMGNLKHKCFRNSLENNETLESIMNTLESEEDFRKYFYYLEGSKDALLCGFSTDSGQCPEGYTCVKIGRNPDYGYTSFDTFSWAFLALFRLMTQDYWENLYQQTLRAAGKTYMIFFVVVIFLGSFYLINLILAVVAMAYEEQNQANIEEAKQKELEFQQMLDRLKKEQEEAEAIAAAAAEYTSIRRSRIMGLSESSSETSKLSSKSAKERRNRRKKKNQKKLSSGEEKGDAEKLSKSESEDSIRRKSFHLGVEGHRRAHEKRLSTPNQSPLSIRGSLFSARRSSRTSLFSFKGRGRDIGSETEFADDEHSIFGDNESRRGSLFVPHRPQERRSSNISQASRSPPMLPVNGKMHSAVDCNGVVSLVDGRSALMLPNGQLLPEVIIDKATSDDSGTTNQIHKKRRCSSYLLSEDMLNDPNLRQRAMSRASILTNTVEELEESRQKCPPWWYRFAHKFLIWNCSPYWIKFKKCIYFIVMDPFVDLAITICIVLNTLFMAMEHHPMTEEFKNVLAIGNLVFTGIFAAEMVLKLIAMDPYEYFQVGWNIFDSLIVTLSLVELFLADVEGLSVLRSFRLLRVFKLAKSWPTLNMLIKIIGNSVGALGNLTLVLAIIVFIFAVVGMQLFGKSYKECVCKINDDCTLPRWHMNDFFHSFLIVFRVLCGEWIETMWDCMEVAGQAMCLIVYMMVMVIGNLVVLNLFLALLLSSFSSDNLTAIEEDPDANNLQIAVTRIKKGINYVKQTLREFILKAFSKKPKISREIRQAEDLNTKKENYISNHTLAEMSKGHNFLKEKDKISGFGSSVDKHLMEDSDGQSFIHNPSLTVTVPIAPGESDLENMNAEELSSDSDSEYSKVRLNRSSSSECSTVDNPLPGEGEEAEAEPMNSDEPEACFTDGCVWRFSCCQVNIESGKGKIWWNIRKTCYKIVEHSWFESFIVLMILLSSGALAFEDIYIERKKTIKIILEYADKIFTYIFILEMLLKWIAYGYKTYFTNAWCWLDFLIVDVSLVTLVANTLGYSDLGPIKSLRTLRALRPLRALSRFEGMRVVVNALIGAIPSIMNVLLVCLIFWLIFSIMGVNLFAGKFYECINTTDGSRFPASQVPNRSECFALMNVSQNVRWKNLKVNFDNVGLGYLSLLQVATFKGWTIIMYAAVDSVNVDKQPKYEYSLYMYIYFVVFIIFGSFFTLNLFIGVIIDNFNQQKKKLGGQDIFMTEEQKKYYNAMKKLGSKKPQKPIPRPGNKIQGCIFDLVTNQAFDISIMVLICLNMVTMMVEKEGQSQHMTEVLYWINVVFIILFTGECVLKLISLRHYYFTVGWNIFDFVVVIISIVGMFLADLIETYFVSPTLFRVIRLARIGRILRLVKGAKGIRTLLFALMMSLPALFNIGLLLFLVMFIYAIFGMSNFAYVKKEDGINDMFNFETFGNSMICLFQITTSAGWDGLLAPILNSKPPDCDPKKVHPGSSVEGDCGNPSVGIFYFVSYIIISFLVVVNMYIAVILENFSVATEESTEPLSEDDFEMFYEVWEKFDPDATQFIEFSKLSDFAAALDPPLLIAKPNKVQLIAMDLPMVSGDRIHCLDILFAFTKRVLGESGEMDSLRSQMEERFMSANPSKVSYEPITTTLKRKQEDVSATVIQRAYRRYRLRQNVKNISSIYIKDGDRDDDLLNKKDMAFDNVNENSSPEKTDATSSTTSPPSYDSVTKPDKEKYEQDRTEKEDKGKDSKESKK

Cc1cccc(C)c1NC(=O)C[N+]1(CCOC(=O)c2ccccc2Cl)CCCCCC1 [Compound 1, 1-(2-((2-chlorobenzoyl)oxy)ethyl)-1-(2-((2,6-dimethylphenyl)amino)-2-oxoethyl)azepan-1-ium bromide]
inhibition at 0.32 µM (NaV1.7 [1]): > 70% | inhibition at 10 µM (NaV1.7 [2]): 40 to 70%
